Experimental data from ChEMBL document CHEMBL2176932, “De novo cyclic pseudopeptides containing aza-β3-amino acids exhibiting antimicrobial activities” (J Med Chem, 2012).
Converted amounts (≈) assume the structure as drawn.

What was measured:
[1] = Selectivity ratio of MHC for sheep RBC to MIC for Escherichia coli ATCC 25922; assay type: functional
[2] = Selectivity ratio of MHC for sheep RBC to MIC for Staphylococcus aureus ATCC 25923; assay type: functional
[3] = Selectivity ratio of HC50 for sheep RBC to MIC for Escherichia coli ATCC 25922; assay type: functional
[4] = Selectivity ratio of HC50 for sheep RBC to MIC for Staphylococcus aureus ATCC 25923; assay type: functional
[5] = Toxicity in sheep RBC assessed as hemolytic activity at 100 uM after 1 hr; assay type: cell-based, Ovis aries, Erythrocyte; details: sheep red blood cells, read-out: Activity
[6] = Toxicity in sheep RBC assessed as hemolytic activity after 1 hr; assay type: cell-based, Ovis aries, Erythrocyte; details: sheep red blood cells
Aeromonas caviae = assay: Antibacterial activity against Aeromonas caviae ATCC 15648 after 48 hrs by microtiter broth dilution method; assay type: functional; details: ATCC 15648, 48 h
Klebsiella aerogenes = assay: Antibacterial activity against Enterobacter aerogenes ATCC 13048 after 48 hrs by microtiter broth dilution method; assay type: functional; details: ATCC 13048, 48 h
Klebsiella oxytoca = assay: Antibacterial activity against Klebsiella oxytoca CIP 7932 after 48 hrs by microtiter broth dilution method; assay type: functional; details: CIP 7932, 48 h
Pseudomonas aeruginosa = assay: Antibacterial activity against Pseudomonas aeruginosa ATCC 27853 after 48 hrs by microtiter broth dilution method; assay type: functional; details: ATCC 27853, 48 h
Salmonella enterica = assay: Antibacterial activity against Salmonella enterica ATCC 13076 after 48 hrs by microtiter broth dilution method; assay type: functional; details: ATCC 13076, 48 h
Escherichia coli = assay: Antibacterial activity against Escherichia coli ATCC 25922 after 48 hrs by microtiter broth dilution method; assay type: functional; details: ATCC 25922, 48 h
Listeria monocytogenes = assay: Antibacterial activity against Listeria monocytogenes SOR 100 after 48 hrs by microtiter broth dilution method; assay type: functional; details: SOR 100, 48 h
Staphylococcus aureus = assay: Antibacterial activity against Staphylococcus aureus ATCC 25923 after 48 hrs by microtiter broth dilution method; assay type: functional; details: ATCC 25923, 48 h
Lactococcus garvieae = assay: Antibacterial activity against Lactococcus garvieae ATCC 43921 after 48 hrs by microtiter broth dilution method; assay type: functional; details: ATCC 43921, 48 h
Micrococcus luteus = assay: Antibacterial activity against Micrococcus luteus ATCC 10240 after 48 hrs by microtiter broth dilution method; assay type: functional; details: ATCC 10240, 48 h
Streptococcus equinus = assay: Antibacterial activity against Streptococcus equinus ATCC 5623 after 48 hrs by microtiter broth dilution method; assay type: functional; details: ATCC 5623, 48 h
Enterococcus faecalis = assay: Antibacterial activity against Enterococcus faecalis CIP 186 after 48 hrs by microtiter broth dilution method; assay type: functional; details: CIP 186, 48 h
Priestia megaterium = assay: Antibacterial activity against Bacillus megaterium ATCC 10778 after 48 hrs by microtiter broth dilution method; assay type: functional; details: ATCC 10778, 48 h
[7] = Half life in bovine serum; assay type: ADME, cell-free, Bos taurus; details: cattle

Compound | MIC (Aeromonas caviae) | MIC (Klebsiella aerogenes) | MIC (Klebsiella oxytoca) | MIC (Pseudomonas aeruginosa) | MIC (Salmonella enterica) | MIC (Escherichia coli) | MIC (Listeria monocytogenes) | MIC (Staphylococcus aureus) | MIC (Lactococcus garvieae) | MIC (Micrococcus luteus) | MIC (Streptococcus equinus) | MIC (Enterococcus faecalis) | MIC (Priestia megaterium) | half-life [7] | Selectivity ratio [1] | Selectivity ratio [2] | Selectivity ratio [3] | Selectivity ratio [4] | hemolysis at 1 h, 100 µM [5] | HC50 at 1 h [6]
CC(C)C[C@@H]1NC(=O)CN(Cc2ccc(-c3ccccc3)cc2)NC(=O)[C@H](CC(C)C)NC(=O)CN(Cc2ccc(-c3ccccc3)cc2)NC(=O)[C@H](CCCCN)NC(=O)CN(CCCCN)NC1=O | > 100 µM | 25 µM (≈ 24.4 µg/mL) | 25 µM (≈ 24.4 µg/mL) | 12.5 µM (≈ 12.2 µg/mL) | 100 µM (≈ 97.4 µg/mL) | 12.5 µM (≈ 12.2 µg/mL) | 1.56 µM (≈ 1.52 µg/mL) | 1.56 µM (≈ 1.52 µg/mL) | 3.12 µM (≈ 3.04 µg/mL) | 0.78 µM (≈ 0.76 µg/mL) | 1.56 µM (≈ 1.52 µg/mL) | 6.25 µM (≈ 6.09 µg/mL) | 0.78 µM (≈ 0.76 µg/mL) |  | 0.12 | 1 | 1.2 | 9.6 | 90% | 15 µM
CC(C)C[C@H]1NC(=O)CN(CCCCN)NC(=O)[C@H](CCCCN)NC(=O)CN(Cc2cccc3ccccc23)NC(=O)CN(CC(C)C)NC1=O | > 100 µM | > 100 µM | > 100 µM | > 100 µM | > 100 µM | > 100 µM | > 100 µM | > 100 µM | > 100 µM | 50 µM (≈ 36.2 µg/mL) | 100 µM (≈ 72.5 µg/mL) | > 100 µM | 50 µM (≈ 36.2 µg/mL) |  |  |  |  |  | 0% | > 100 µM
CC[C@H](C)[C@H](NC(=O)CN)C(=O)NCC(=O)N[C@@H](C)C(=O)N[C@H](C(=O)N[C@@H](CC(C)C)C(=O)N[C@@H](CCCCN)C(=O)N[C@H](C(=O)N[C@@H](CC(C)C)C(=O)N[C@H](C(=O)N[C@H](C(=O)NCC(=O)N[C@@H](CC(C)C)C(=O)N1CCC[C@H]1C(=O)N[C@@H](C)C(=O)N[C@@H](CC(C)C)C(=O)N[C@H](C(=O)N[C@@H](CO)C(=O)N[C@@H](Cc1c[nH]c2ccccc12)C(=O)N[C@H](C(=O)N[C@@H](CCCCN)C(=O)N[C@@H](CCCNC(=N)N)C(=O)N[C@@H](CCCCN)C(=O)N[C@@H](CCCNC(=N)N)C(=O)N[C@@H](CCC(N)=O)C(=O)N[C@@H](CCC(N)=O)C(N)=O)[C@@H](C)CC)[C@@H](C)CC)[C@@H](C)O)[C@@H](C)O)C(C)C)C(C)C [MELITTIN] | > 100 µM | 12.5 µM (≈ 35.6 µg/mL) | 25 µM (≈ 71.2 µg/mL) |  | 25 µM (≈ 71.2 µg/mL) |  |  |  | 6.25 µM (≈ 17.8 µg/mL) | 1.56 µM (≈ 4.44 µg/mL) | 3.12 µM (≈ 8.88 µg/mL) | 12.5 µM (≈ 35.6 µg/mL) | 6.25 µM (≈ 17.8 µg/mL) | 0.06 h |  |  |  |  |  | 
CCCCCCCCCCCCN1CC(=O)N[C@@H](Cc2c[nH]c3ccccc23)C(=O)NN(Cc2cccc3ccccc23)CC(=O)N[C@@H](CCCCN)C(=O)NN(CCCCN)CC(=O)N[C@@H](CC2CCCCC2)C(=O)N1 | > 100 µM | > 100 µM | > 100 µM | > 100 µM | > 100 µM | > 100 µM | 12.5 µM (≈ 13.3 µg/mL) | 25 µM (≈ 26.6 µg/mL) | 50 µM (≈ 53.2 µg/mL) | 12.5 µM (≈ 13.3 µg/mL) | 12.5 µM (≈ 13.3 µg/mL) | 12.5 µM (≈ 13.3 µg/mL) | 12.5 µM (≈ 13.3 µg/mL) | > 2 h |  | 0.12 |  | 2 | 62% | 50 µM

The next lines start with results.

MIC (Aeromonas caviae) | MIC (Klebsiella aerogenes) | MIC (Klebsiella oxytoca) | MIC (Pseudomonas aeruginosa) | MIC (Salmonella enterica) | MIC (Escherichia coli) | MIC (Listeria monocytogenes) | MIC (Staphylococcus aureus) | MIC (Lactococcus garvieae) | MIC (Micrococcus luteus) | MIC (Streptococcus equinus) | MIC (Enterococcus faecalis) | MIC (Priestia megaterium) | half-life [7] | Compound | Selectivity ratio [1] | Selectivity ratio [2] | Selectivity ratio [3] | Selectivity ratio [4] | hemolysis at 1 h, 100 µM [5] | HC50 at 1 h [6]
> 100 µM | > 100 µM | > 100 µM | 25 µM (≈ 25.3 µg/mL) | > 100 µM | > 100 µM | 3.12 µM (≈ 3.16 µg/mL) | 6.25 µM (≈ 6.33 µg/mL) | 6.25 µM (≈ 6.33 µg/mL) | 3.12 µM (≈ 3.16 µg/mL) | 6.25 µM (≈ 6.33 µg/mL) | 12.5 µM (≈ 12.7 µg/mL) | 6.25 µM (≈ 6.33 µg/mL) | > 2 h | CCCCCCCCN1CC(=O)N[C@@H](Cc2c[nH]c3ccccc23)C(=O)NN(CCCCCCCC)CC(=O)N[C@@H](CCCCN)C(=O)NN(CCCCN)CC(=O)N[C@@H](Cc2c[nH]c3ccccc23)C(=O)N1 |  | 1 |  | 14.4 | 55% | 90 µM
> 100 µM | > 100 µM | > 100 µM | > 100 µM | > 100 µM | > 100 µM | > 100 µM | > 100 µM | > 100 µM | 100 µM (≈ 91.5 µg/mL) | > 100 µM | > 100 µM | 25 µM (≈ 22.9 µg/mL) |  | CC(C)CN1CC(=O)N[C@@H](Cc2c[nH]c3ccccc23)C(=O)NN(CCCCN)CC(=O)N[C@@H](CCCCN)C(=O)NN(CCCCN)CC(=O)N[C@@H](Cc2c[nH]c3ccccc23)C(=O)N1 |  |  |  |  | 0% | > 100 µM
